Test results taken from ChEMBL document CHEMBL1201862, “PubChem BioAssay data set” (2004).
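Results reflect a 48-hour exposure of cells in 96-well plates to compound at five concentrations. The concentration for 50% growth inhibition is given as GI50.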 The source made the active and inactive calls. Cut-off read from the data, not from the text of the source: active = GI50 up to about 1.1 µM and inactive = higher.

Key:
Experiment in all cases: growth of human tumour cells (NCI), 48 h
ACHN = system: ACHN
HCT-116 = system: HCT-116
HOP-92 = system: HOP-92
HT-29 = system: HT-29
MCF7 = system: MCF7
MDA-MB-435 = system: MDA-MB-435
NCI/ADR-RES = system: NCI/ADR-RES
OVCAR-5 = system: OVCAR-5
OVCAR-8 = system: OVCAR-8
PC-3 = system: PC-3
SK-MEL-2 = system: SK-MEL-2
SK-MEL-5 = system: SK-MEL-5
SK-OV-3 = system: SK-OV-3
SNB-19 = system: SNB-19
SR = system: SR
U-251 = system: U-251
UACC-62 = system: UACC-62
HCT-15 = system: HCT-15
T47D = system: T47D
TK-10 = system: TK-10

| SMILES | GI50 (ACHN) | GI50 (HCT-116) | GI50 (HOP-92) | GI50 (HT-29) | GI50 (MCF7) | GI50 (MDA-MB-435) | GI50 (NCI/ADR-RES) | GI50 (OVCAR-5) | GI50 (OVCAR-8) | GI50 (PC-3) | GI50 (SK-MEL-2) | GI50 (SK-MEL-5) | GI50 (SK-OV-3) | GI50 (SNB-19) | GI50 (SR) | GI50 (U-251) | GI50 (UACC-62) | GI50 (HCT-15) [µM] | GI50 (T47D) | GI50 (TK-10) |
| --- | --- | --- | --- | --- | --- | --- | --- | --- | --- | --- | --- | --- | --- | --- | --- | --- | --- | --- | --- | --- |
| COc1ccc(C2=Nc3c(nc(SC)[nH]c3=O)NC(c3ccccc3)C2)cc1 (configuration not stated) | 21.8 µM (inactive) | 30.9 µM (inactive) | 46.3 µM (inactive) | 21.8 µM (inactive) | 17.1 µM (inactive) | 29.2 µM (inactive) | 20 µM (inactive) | 34.5 µM (inactive) | 19.4 µM (inactive) | 33.7 µM (inactive) | 29.1 µM (inactive) | 16.6 µM (inactive) | 18.1 µM (inactive) | 23.8 µM (inactive) | 73.3 µM (inactive) | 18.9 µM (inactive) | > 10 µM (inactive) |  |  |  |
| CN(C)CCCn1c2c3ccccc3ccc2c2oc(=O)c3ccccc3c21 | 6.79 µM (inactive) | 2.48 µM (inactive) | 23.8 µM (inactive) | 5.53 µM (inactive) | 7.19 µM (inactive) |  | 10.8 µM (inactive) | 32.6 µM (inactive) | 3.57 µM (inactive) |  | 9.23 µM (inactive) | 9.53 µM (inactive) | 14.8 µM (inactive) | 5.96 µM (inactive) | 0.914 µM (active) | 3.26 µM (inactive) | 8.63 µM (inactive) | 1.57 | 12.1 µM (inactive) | 14.2 µM (inactive) |
| O=C1CC(CC(O)C(O)CO)CC(=O)N1 (configuration not stated) | > 100 µM (inactive) | > 100 µM (inactive) | > 100 µM (inactive) | > 100 µM (inactive) | > 100 µM (inactive) | > 100 µM (inactive) | > 100 µM (inactive) |  | > 100 µM (inactive) | > 100 µM (inactive) |  | > 100 µM (inactive) |  | > 100 µM (inactive) |  | > 100 µM (inactive) |  | > 100 | > 100 µM (inactive) | > 100 µM (inactive) |
| O=C1NNC2NC(=O)C3(NN2C1=O)c1ccccc1-c1ccccc13 (configuration not stated) | > 100 µM (inactive) | > 100 µM (inactive) | > 100 µM (inactive) | > 100 µM (inactive) | > 100 µM (inactive) | > 100 µM (inactive) | > 100 µM (inactive) | > 100 µM (inactive) | > 100 µM (inactive) | > 100 µM (inactive) | > 100 µM (inactive) | > 100 µM (inactive) | > 100 µM (inactive) | > 100 µM (inactive) | > 100 µM (inactive) | > 100 µM (inactive) | > 100 µM (inactive) | > 100 |  | > 100 µM (inactive) |
| O=C1/C(=C\c2ccccc2)CN(C(=O)CCN2CCCCC2)C/C1=C/c1ccccc1 | 1.95 µM (inactive) | 0.254 µM (active) | 3.55 µM (inactive) | 0.443 µM (active) | 0.415 µM (active) | 2.05 µM (inactive) |  | 1.72 µM (inactive) | 0.869 µM (active) | 1.24 µM (inactive) | 2 µM (inactive) | 1.17 µM (inactive) | 4.01 µM (inactive) | 1.84 µM (inactive) | 0.315 µM (active) | 0.632 µM (active) | 1.43 µM (inactive) | 1.09 |  | 3.93 µM (inactive) |
| CN(CCNC(=O)c1nn(-c2ccccc2)c2c1Cc1ccccc1-2)CCNC(=O)c1nn(-c2ccccc2)c2c1Cc1ccccc1-2 | 1.74 µM (inactive) | 1.65 µM (inactive) | 1.53 µM (inactive) | 1.85 µM (inactive) | 1.64 µM (inactive) | 1.61 µM (inactive) | 2.17 µM (inactive) | 2.37 µM (inactive) | 1.68 µM (inactive) | 2.19 µM (inactive) | 1.86 µM (inactive) | 1.79 µM (inactive) | 2 µM (inactive) | 2.14 µM (inactive) |  | 1.71 µM (inactive) | 1.71 µM (inactive) | 1.88 | 2.48 µM (inactive) | 2.04 µM (inactive) |
| COC(=O)C(=O)C(C(=O)C(=O)Nc1ccc(Cl)cc1Cl)c1nc2ccc(Cl)cc2nc1O (configuration not stated) | > 100 µM (inactive) | > 100 µM (inactive) | 58.5 µM (inactive) | > 100 µM (inactive) | > 100 µM (inactive) | > 100 µM (inactive) | > 100 µM (inactive) | > 100 µM (inactive) | > 100 µM (inactive) | > 100 µM (inactive) | > 100 µM (inactive) | > 100 µM (inactive) | > 100 µM (inactive) | > 100 µM (inactive) |  | > 100 µM (inactive) | > 100 µM (inactive) | > 100 |  | 69.8 µM (inactive) |
| Nc1ccc2c(c1)NCCN2 | 6.53 µM (inactive) | > 100 µM (inactive) | > 100 µM (inactive) | 42.3 µM (inactive) | 4.53 µM (inactive) | 82 µM (inactive) | > 100 µM (inactive) | > 100 µM (inactive) | 50.9 µM (inactive) | > 100 µM (inactive) | > 100 µM (inactive) | 5.11 µM (inactive) |  | 9.84 µM (inactive) | 1.69 µM (inactive) | 22.9 µM (inactive) | 5.13 µM (inactive) | 61.9 |  | 55.7 µM (inactive) |
